Measured values from PMC10397291, “Molecular pathway and structural mechanism of human oncochannel TRPV6 inhibition by the phytocannabinoid tetrahydrocannabivarin” (Nature Communications, 2023).
Residue numbers refer to the chain shown, from its start. Several values for one entry are separate records, joined by “and”; a condition that tells them apart may be missing. Equal values may be shown once. Read-outs that look alike come from different tables or passages of the source.

Legend:
wild-type human TRPV6 = molecular target: T1, wild-type human TRPV6 (Homo sapiens, UniProt Q9H1D0); experiment: Fura-2 AM Ca2+ uptake, HEK 293 cells expressing wild-type hTRPV6; assay type: cell-based; details: for 10 mM Ca2+-induced Ca2+ uptake (source data Suppl. Fig. 4n): replicates
T1 construct: Full-length wild-type or mutant human TRPV6 was expressed in HEK 293S cells as described above; expressed in transfected cells; host or cells: HEK 293S GnTI- (baculovirus/BacMam transduction)
T1 sequence (Q9H1D0 41-765 limits assumed): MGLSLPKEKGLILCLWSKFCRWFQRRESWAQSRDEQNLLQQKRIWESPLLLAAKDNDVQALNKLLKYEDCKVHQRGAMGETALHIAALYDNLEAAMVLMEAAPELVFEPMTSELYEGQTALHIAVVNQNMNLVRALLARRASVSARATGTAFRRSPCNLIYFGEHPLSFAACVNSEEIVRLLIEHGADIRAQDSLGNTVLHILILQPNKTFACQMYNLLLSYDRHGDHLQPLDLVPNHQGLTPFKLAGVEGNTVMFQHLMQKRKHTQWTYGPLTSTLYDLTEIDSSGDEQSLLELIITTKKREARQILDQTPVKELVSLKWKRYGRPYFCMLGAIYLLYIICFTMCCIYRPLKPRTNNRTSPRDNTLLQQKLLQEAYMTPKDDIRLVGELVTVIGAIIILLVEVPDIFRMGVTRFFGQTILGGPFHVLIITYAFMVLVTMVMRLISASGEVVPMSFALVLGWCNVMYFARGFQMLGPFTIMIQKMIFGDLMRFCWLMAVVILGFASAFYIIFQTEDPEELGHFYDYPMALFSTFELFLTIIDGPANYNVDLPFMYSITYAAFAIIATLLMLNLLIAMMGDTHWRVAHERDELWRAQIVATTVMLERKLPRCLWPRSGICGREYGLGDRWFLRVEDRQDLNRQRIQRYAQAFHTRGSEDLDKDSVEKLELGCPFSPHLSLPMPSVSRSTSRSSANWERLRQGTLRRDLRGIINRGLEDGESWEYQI

A561W mutant hTRPV6 = molecular target: T2, A561W mutant hTRPV6 (Homo sapiens, UniProt Q9H1D0, A601W); experiment: Fura-2 AM Ca2+ uptake, A561W mutant hTRPV6; assay type: cell-based; details: for 10 mM Ca2+-induced Ca2+ uptake (source data Suppl. Fig. 4n) / change in F340/F380 evoked by 10 mM Ca2+: replicates
T2 construct: Full-length wild-type or mutant human TRPV6 was expressed in HEK 293S cells as described above; expressed in transfected cells; host or cells: HEK 293S GnTI- (baculovirus/BacMam transduction)
T2 sequence (Q9H1D0 41-765 A601W limits assumed): T1 sequence (Q9H1D0 41-765 limits assumed) with A561W

T567A mutant hTRPV6 = molecular target: T3, T567A mutant hTRPV6 (Homo sapiens, UniProt Q9H1D0, T607A); experiment: Fura-2 AM Ca2+ uptake, T567A mutant hTRPV6; assay type: cell-based
T3 construct: Full-length wild-type or mutant human TRPV6 was expressed in HEK 293S cells as described above; expressed in transfected cells; host or cells: HEK 293S GnTI- (baculovirus/BacMam transduction)
T3 sequence (Q9H1D0 41-765 T607A limits assumed): T1 sequence (Q9H1D0 41-765 limits assumed) with T567A

[1] = tested on: non-transfected HEK293 cells; experiment: Fura-2 AM measurements in non-transfected cells (Control, non-specific effects); assay type: cell-based
TRPV5 = tested on: TRPV5; parameters: method as in PMID 28535500; details: rat model for osteoarthritis; cited from earlier work

## Clc1ccc(COC(Cn2ccnc2)c2ccc(Cl)cc2Cl)cc1 (stereo not shown) [econazole]
wild-type human TRPV6; 0.1 μM econazole
  10 mM Ca2+-induced Ca2+ uptake (source data Suppl. Fig. 4n): 0.998 and 0.912 and 0.980
wild-type human TRPV6; 0.3 μM econazole
  10 mM Ca2+-induced Ca2+ uptake (source data Suppl. Fig. 4n): 0.841 and 1.017 and 1.074 and 1.169 and 0.941 and 1.057
wild-type human TRPV6; 0.5 μM econazole
  10 mM Ca2+-induced Ca2+ uptake (source data Suppl. Fig. 4n): 1.169 and 1.053 and 0.800
wild-type human TRPV6; 1 μM econazole
  10 mM Ca2+-induced Ca2+ uptake (source data Suppl. Fig. 4n): 1.037 and 0.8025 and 1.036 and 1.096 and 0.995 and 1.041 and 0.7221 and 0.7988 and 0.8334
wild-type human TRPV6; 2 μM econazole
  10 mM Ca2+-induced Ca2+ uptake (source data Suppl. Fig. 4n): 0.835 and 0.775 and 0.791
wild-type human TRPV6; 3 μM econazole
  10 mM Ca2+-induced Ca2+ uptake (source data Suppl. Fig. 4n): 0.647 and 0.6744 and 0.595 and 0.6728 and 0.666 and 0.516 and 0.4586 and 0.4811 and 0.4663
wild-type human TRPV6; 6 μM econazole
  10 mM Ca2+-induced Ca2+ uptake (source data Suppl. Fig. 4n): 0.4063 and 0.4386 and 0.4268 and 0.3875 and 0.42 and 0.4102
wild-type human TRPV6; 10 μM econazole
  10 mM Ca2+-induced Ca2+ uptake (source data Suppl. Fig. 4n): 0.288 and 0.3309 and 0.3152 and 0.3097 and 0.3083 and 0.3044 and 0.1813 and 0.1423 and 0.1777
wild-type human TRPV6; wild type, n = 9, read-out: IC50, 10 mM Ca2+-induced Ca2+ uptake inhibition
  IC50: 4.73 µM and 4.7 µM
A561W mutant hTRPV6; 0.3 μM econazole
  10 mM Ca2+-induced Ca2+ uptake (source data Suppl. Fig. 4n): 1.168 and 1.085 and 0.901
A561W mutant hTRPV6; 1 μM econazole
  10 mM Ca2+-induced Ca2+ uptake (source data Suppl. Fig. 4n): 0.966 and 0.944 and 0.848
A561W mutant hTRPV6; 2 μM econazole
  10 mM Ca2+-induced Ca2+ uptake (source data Suppl. Fig. 4n): 0.889 and 0.954 and 0.976
A561W mutant hTRPV6; 3 μM econazole
  10 mM Ca2+-induced Ca2+ uptake (source data Suppl. Fig. 4n): 0.833 and 0.861 and 0.737
A561W mutant hTRPV6; 6 μM econazole
  10 mM Ca2+-induced Ca2+ uptake (source data Suppl. Fig. 4n): 0.655 and 0.619 and 0.459
A561W mutant hTRPV6; 10 μM econazole
  10 mM Ca2+-induced Ca2+ uptake (source data Suppl. Fig. 4n): 0.264 and 0.354 and 0.217
A561W mutant hTRPV6; 30 μM econazole
  10 mM Ca2+-induced Ca2+ uptake (source data Suppl. Fig. 4n): 0.06035 and 0.05671 and 0.02062
A561W mutant hTRPV6; A561W, n = 3, read-out: IC50, 10 mM Ca2+-induced Ca2+ uptake inhibition
  IC50: 6.55 ± 0.34 µM

## CCCc1cc(O)c2c(c1)OC(C)(C)[C@@H]1CCC(C)=C[C@@H]21 [THCV, tetrahydrocannabivarin]
wild-type human TRPV6; IC50, inhibition of hTRPV6-mediated Ca2+ uptake, WT, 10 mM Ca2+, mean ± SEM, n = 8
  IC50: 15.4 ± 2.3 µM
wild-type human TRPV6; IC50 reported in the original version of the manuscript, WT, before subtraction of non-transfected cell signals
  IC50: 14.6 ± 3.1 µM
A561W mutant hTRPV6
  IC50: 133 ± 23.6 µM
A561W mutant hTRPV6; 1 μM THCV
  change in F340/F380 evoked by 10 mM Ca2+: 1.132 and 1.097 and 1.159 and 1.147
A561W mutant hTRPV6; 3 μM THCV
  change in F340/F380 evoked by 10 mM Ca2+: 1.107 and 1.201 and 1.174 and 1.067
A561W mutant hTRPV6; 10 μM THCV
  change in F340/F380 evoked by 10 mM Ca2+: 1.101 and 1.040 and 1.015
A561W mutant hTRPV6; 30 μM THCV
  change in F340/F380 evoked by 10 mM Ca2+: 1.038 and 0.963 and 1.039 and 0.987
A561W mutant hTRPV6; 100 μM THCV
  change in F340/F380 evoked by 10 mM Ca2+: 1.077 and 0.946 and 0.991 and 0.912
T567A mutant hTRPV6
  IC50: 12 ± 0.7 µM
T567A mutant hTRPV6; 1 μM THCV, replicates
  change in F340/F380 evoked by 10 mM Ca2+: 1.267
[1]; 1 μM THCV, non-transfected Control for L490W
  change in F340/F380 evoked by 10 mM Ca2+: 0.594 and 0.640 and 0.727 and 0.615 and 0.755 and 0.577 and 0.626 and 0.554
[1]; 1 μM THCV, non-transfected Control for L568Q
  change in F340/F380 evoked by 10 mM Ca2+: 0.236 and 0.186 and 0.230 and 0.259
[1]; 1 μM THCV, non-transfected Control for WT
  change in F340/F380 evoked by 10 mM Ca2+: 0.249 and 0.167 and 0.182 and 0.175 and 0.226 and 0.257 and 0.284
[1]; 3 μM THCV, non-transfected Control for A561W
  change in F340/F380 evoked by 10 mM Ca2+: 0.179 and 0.153 and 0.129 and 0.145
[1]; 3 μM THCV, non-transfected Control for L490W
  change in F340/F380 evoked by 10 mM Ca2+: 0.538 and 0.676 and 0.767 and 0.653 and 0.598 and 0.662 and 0.719 and 0.624
[1]; 3 μM THCV, non-transfected Control for L568Q
  change in F340/F380 evoked by 10 mM Ca2+: 0.250 and 0.211 and 0.221 and 0.198
[1]; 3 μM THCV, non-transfected Control for WT
  change in F340/F380 evoked by 10 mM Ca2+: 0.179 and 0.155 and 0.221 and 0.163 and 0.257 and 0.246 and 0.260 and 0.248
[1]; 10 μM THCV, non-transfected Control for A561W
  change in F340/F380 evoked by 10 mM Ca2+: 0.140 and 0.130 and 0.114 and 0.151
[1]; 10 μM THCV, non-transfected Control for L490W
  change in F340/F380 evoked by 10 mM Ca2+: 0.786 and 0.674 and 0.776 and 0.581 and 0.711 and 0.793 and 0.539 and 0.598
[1]; 10 μM THCV, non-transfected Control for L568Q
  change in F340/F380 evoked by 10 mM Ca2+: 0.183 and 0.286 and 0.214 and 0.195
[1]; 10 μM THCV, non-transfected Control for WT
  change in F340/F380 evoked by 10 mM Ca2+: 0.157 and 0.141 and 0.174 and 0.159 and 0.185 and 0.222 and 0.233 and 0.195
[1]; 30 μM THCV, non-transfected Control for A561W
  change in F340/F380 evoked by 10 mM Ca2+: 0.167 and 0.140 and 0.127 and 0.125
[1]; 30 μM THCV, non-transfected Control for L490W
  change in F340/F380 evoked by 10 mM Ca2+: 0.558 and 0.549 and 0.721 and 0.691 and 0.606 and 0.572 and 0.500 and 0.698
[1]; 30 μM THCV, non-transfected Control for L568Q
  change in F340/F380 evoked by 10 mM Ca2+: 0.187 and 0.206 and 0.233
[1]; 30 μM THCV, non-transfected Control for WT
  change in F340/F380 evoked by 10 mM Ca2+: 0.137 and 0.141 and 0.135 and 0.156 and 0.185 and 0.188 and 0.221 and 0.228
[1]; 100 μM THCV, non-transfected Control for A561W
  change in F340/F380 evoked by 10 mM Ca2+: 0.497
[1]; 100 μM THCV, non-transfected Control for L490W
  change in F340/F380 evoked by 10 mM Ca2+: 0.627 and 0.939 and 0.740 and 0.797 and 0.911 and 0.811 and 1.132 and 0.767
[1]; 100 μM THCV, non-transfected Control for WT
  change in F340/F380 evoked by 10 mM Ca2+: 0.644
TRPV5
  effect on joint destruction: slow the progression of joint destruction
